Values after ≈ are worked out from the molar mass of the structure shown.
Conditions: for solubility: 25 °C

| Compound | logP | solubility |
| --- | --- | --- |
| COc1cc(Cl)c(Cl)cc1OC | 3.11 | 348 µM (≈ 72 µg/mL) |
| COc1cccc(Cl)c1 | – | 1650 µM (≈ 235 µg/mL) |
| COc1c(Cl)cccc1Cl | 3.14 | 791 µM (≈ 140 µg/mL) |
| COc1cc(Cl)c(Cl)c(Cl)c1Cl | – | 5.49 µM (≈ 1.35 µg/mL) |
| COc1c(Cl)c(Cl)c(Cl)c(Cl)c1OC | 4.86 | 5.76 µM (≈ 1.59 µg/mL) |
| COc1ccc(Cl)c(Cl)c1Cl | – | 51.1 µM (≈ 10.8 µg/mL) |
| COc1cc(Cl)c(Cl)c(Cl)c1OC | 4.01 | 42.6 µM (≈ 10.3 µg/mL) |
| COc1c(Cl)c(Cl)cc(Cl)c1Cl | – | 7.4 µM (≈ 1.82 µg/mL) |
| COc1cccc(Cl)c1Cl | 3.24 | 491 µM (≈ 86.9 µg/mL) |

— the OPERA property sets (Mansouri et al. 2018)
